# Laboratory results taken from patent US12721343B2, “Methods and uses of a mixture comprising alpha-cypermethrin and dinotefuran for controlling invertebrate pests in t” (BASF AGRO B.V., priority 2020, dated 2026).
# What was measured:
# Type in all cases: in vivo
# [1] = tested on: Southern Chinch Bug (Blissus insularis, BLISIN); experiment: Field trial against Southern chinch bug, nymph counts by vacuum sampling; conditions: for % Control / % activity: alpha-cypermethrin 95, dinotefuran 600, combination 95 + 380 g ai/ha; for Nymph Counts (average number of Chinch bug nymphs per treatment per sample): 28 days after treatment, alpha-cypermethrin 95, dinotefuran 600, combination 95 + 380 g ai/hectare
# From the text: (§1) Synergism can be described as an interaction where the combined effect of two or more compounds is greater than the sum of the individual effects of each of the compounds. The presence of a synergistic effect in terms of percent control, between two mixing partners (X and Y) can be calculated using the Colby equation (Colby, S. R., 1967, Calculating Synergistic and Antagonistic Responses in Herbicide Combinations, Weeds, 15, 20-22):
# Treatments were applied in a field with a natural infestation of Southern Chinch Bugs. The experiment was conducted with four replications, utilizing 3×3 m2 plots. The application was made in 813 liters per hectare spray volume.
# The treatments consisted of an untreated check, and formulations containing either alpha-cypermethrin at a use rate of 95 grams ai/hectare, dinotefuran at 600 gram ai/hectare or a combination of alpha-cypermethrin and dinotefuran at 95+380 grams ai/hectare. Direct visual counts were made of larval chinch bugs in all stages of development after being mechanically vacuumed for 20 seconds from the surface of the turf. Chinch Bug abundance was measured using a commercially available lawn vacuum/blower combination machine by covering the vacuum (intake) orifice with mesh cloth and placing the intake on randomly within the turf plot and holding suction for […]. Samples were collected from each plot in an identical manner. After the sample was collected and the vacuum turned off, the captured contents of the mesh cloth were tapped into a 5-gallon plastic bucket for ease of counting of nymphs (at any instar).
# The following average numbers of chinch bug nymphs were collected per sample per treatment 28 days after the insecticide applications were made.
# [2] = tested on: Sod webworm (Herpetogramma phaeopteralis, PACYPH); experiment: Field trial against sod webworm, larvae counts; conditions: for % Control / % activity: alpha-cypermethrin 47.5, dinotefuran 600, combination 47.5 + 190 g ai/ha; for Sod Webworm Counts (average number of larvae per treatment per sample): 7 days after treatment, alpha-cypermethrin 47.5, dinotefuran 600, combination 47.5 + 190 g ai/hectare
# From the text: as §1
# Treatments were applied with a natural infestation of sod webworm. The experiment was conducted in four replications, utilizing 3×3 m2 plots. One application was made in 813 liters per hectare spray volume. po The treatments consisted of an untreated check, formulations of either alpha-cypermethrin at a use rate of 47.5 grams ai/hectare, dinotefuran at 600 gram ai/hectare or a combination of alpha-cypermethrin and dinotefuran at 47.5+190 grams ai/hectare.
# Direct visual counts were made of sod webworm larvae in each plot 7 days after treatment.
# [3] = tested on: Japanese beetle grub (Popillia japonica, POPIJA); experiment: Turf plot trial against Japanese beetle grubs, grub counts in soil cores; conditions: 85 DAT; for % Control / % activity: alpha-cypermethrin 95, dinotefuran 600, combination 95 + 380 g ai/ha; for Japanese Beetle Grub Counts (average per treatment per sample): alpha-cypermethrin 95, dinotefuran 600, combination 95 + 380 g ai/hectare
# Protocol: as §1
# The trial was conducted in plots consisting of a mix of Poa pratensis (~10%)—Lolium perenne (~60%)—Festuca arundinacea (~10%), and Agrostis stolonifera (<10%). Treatments were arranged in a randomized complete block design and replicated four times. Each replicate consisted of 3 arenas (~150 in^2). Each replicate was contained within a turfgrass plot measuring 9 ft^2. Treatments were applied in 813 liter/hectare spray volume.
# To obtain consistent densities of white grub larvae, Japanese beetles (Popillia japonica) were captured in pheromone traps and seeded into the arenas to mate and oviposit.
# 20 males and 20 females were placed into 8 inch diameter PVC arenas (height=6 inch). The arena was driven 1 inch into the ground and fit with a mesh covering (324 openings/in2) to prevent beetles from escaping. After 3 days, the mesh coverings were removed, beetles removed, and 40 new beetles (20 males and 20 females) were placed into the arenas, followed by a third introduction. Nineteen days after the initial infestation date, the arenas were dismantled, and the turf was maintained as normal. Turf paint was used to mark the edges of turf where the arenas were located and reapplied as necessary.
# White grub suppression was assessed 85 DAT by comparing the densities of grubs in treated and untreated plots. Three soil cores (total area=150 in2) were removed from each plot where the arenas were located using a large golf course cup cutter. Core soils were examined visually, by breaking the soil over a tray and looking for grubs (while in the field). The number of white grubs was pooled for the arenas in each replicate. Japanese beetle larvae present at time of evaluation (98.4%) were a mix of 2nd (42%) and 3rd (58%) instars.
# [4] = tested on: Masked chafer (Cyclocephala spp., CYCCSP); experiment: Turf trial against masked chafer grubs (Kentucky Bluegrass, natural infestation), larvae counts; conditions: for % Control / % activity: alpha-cypermethrin 95, dinotefuran 600, combination 95 + 380 g ai/ha; for Masked Chafer Grub Counts (average per treatment per sample, per 1 sq. ft.): 62 days after treatment, alpha-cypermethrin 95, dinotefuran 600, combination 95 + 380 g ai/hectare
# Protocol: as §1
# The trial was conducted with Kentucky Bluegrass as main turf variety, with a natural infestation of masked chafer grubs. Treatments were arranged in a randomized complete block design and replicated four times in plots measuring 24 ft^2.
# Treatments were applied in 813 liter/hectare spray volume.
# White grub control was determined by larvae counts 62 days after treatment. A sod cutter cut a strip down the center of each replicate and a shovel cut the stirp into a small square in the middle of each plot. The number of larvae in each 1 sq. ft. were counted.
# [5] = tested on: Black cut worm (Agrostis ypsilon, AGROYP); experiment: Field bioassay with caged black cutworm larvae on putting green; conditions: for % Control / % activity: alpha-cypermethrin 47.5, dinotefuran 600, combination 47.5 + 190 g ai/ha; for Black Cutworm Counts (average surviving larvae per treatment per sample, 10 larvae/plot): 19 days after treatment, alpha-cypermethrin 47.5, dinotefuran 600, combination 47.5 + 190 g ai/hectare
# Protocol: as §1
# The study was conducted on a creeping bentgrass/annual bluegrass putting green in a golf course. The study was a field bioassay where insect larvae were placed in cages at different intervals after applying insecticide treatments.
# Applications were made to 4-foot by 6-foot plots replicated four times in 813 liter spray volume per hectare. Black cutworm (Agrostis ypsilon) larvae were caged in the turf at after the treatments were applied. Cages consisted of six-inch diameter metal cans. Two cages were inserted into each plot and five second-instar larvae were placed into each cage (total of 10 larvae/plot) before dusk. Window screen and a plastic louver were placed on top of the cages and held down with nails to secure the larvae. Larvae were caged for four days (96 hours) then a disclosing solution of 1 fl. oz. Joy Ultra dish soap in 1 gallon of water was used to flush surviving larvae 19 days after treatment.
# [6] = tested on: Fall armyworm (Spodoptera frugiperda, LAPHFR); experiment: Golf course trial against fall armyworm, soapy water flush counts; conditions: for % Control / % activity: alpha-cypermethrin 95, dinotefuran 600, combination 95 + 380 g ai/ha; for Fall Armyworm worm Counts (average per treatment per sample, 1-sq-ft): 28 days after treatment, alpha-cypermethrin 95, dinotefuran 600, combination 95 + 380 g ai/hectare
# Protocol: as §1
# This trial was conducted at a golf course in an area planted with Hybrid bermudagrass, cv. ‘419’, with natural infestation of fall armyworm. The trial was laid out in 6 replications with each plot measuring 20×25 ft. Applications were made in a spray volume of 203 liters per hectare. The fall armyworms were about second or third instar when found. Fall armyworm density assessment was conducted as soapy water flush. About one gallon of soapy water was poured into an area marked with a 1-sq-ft PVC pipe square. Fall armyworms surfaced within 5 minutes and were counted in each 1-sq-ft area. Fall armyworm densities in a total of three squares (or 3 subsamples) were determined in each plot at each sampling data. Assessments were conducted at 28 days after treatment.
# [7] = tested on: Fall armyworm, Spodoptera frugiperda (LAPHFR); experiment: Fall armyworm feeding damage on creeping bentgrass fairway; conditions: for % Reduction / % activity: alpha-cypermethrin 95, dinotefuran 600, combination 95 + 380 g ai/ha; for Fall Armyworm damage (%) (average feeding damage): five days after treatment, two applications, alpha-cypermethrin 95, dinotefuran 600, combination 95 + 380 g ai/hectare
# From the text: as §1
# A trial was established on a mature ‘L-93’ creeping bentgrass fairway. An initial application was made with a repeat application 8 days later. Fall armyworms were artificially infested at the test site eight hours after the second application. Ten living caterpillars were added to each plot and were protected within a PVC ring. Plots were rated five days after treatement for percent damage by caterpillar feeding within the ring area.
# [8] = tested on: Masked chafer grub, Cyclocephala spp. (CYCCSP); experiment: Perennial ryegrass plot trial against masked chafer grubs (seeded adults), live grub counts; conditions: for % Control / % activity: alpha-cypermethrin 95, dinotefuran 600, combination 95 + 380 g ai/ha; for Masked Chafer grub counts (average live grubs per treatment per sample): 4 days after treatment, alpha-cypermethrin 95, dinotefuran 600, combination 95 + 380 g ai/hectare
# Protocol: as §1
# The study was conducted on perennial ryegrass. Individual plots were 6 ft×6 ft and arranged in a randomized complete block design with 4 replications. Adult Cyclocephala spp. (masked chafer) were collected when active and immediately placed inside covered PVC rings on each plot. Approximately 50 adult masked chafers were added to each plot throughout the active adult stage. The rings were removed 24-36 hours after insecticide application. After the treatment, the plots were irrigated immediately with approximately 0.125″ of water. Treatments were applied in water equivalent to 813 liters/hectare. The number of live grub larvae was assessed 4 days after treatment by removing a two-foot strip of sod cut to a […] each plot (12 ft2 per plot).
# [9] = 28 DAT, calculated from solo rates 95 and 600 g ai/ha
SMILES,% Control / % activity ([1]; 28 DAT),Nymph Counts (average number of Chinch bug nymphs per treatment per sample) [1],% Control / % activity ([2]; 7 DAT),Sod Webworm Counts (average number of larvae per treatment per sample) [2],% Control / % activity [3],Japanese Beetle Grub Counts (average per treatment per sample) [3],% Control / % activity ([4]; 62 DAT),"Masked Chafer Grub Counts (average per treatment per sample, per 1 sq. ft.) [4]",% Control / % activity ([5]; 19 DAT),"Black Cutworm Counts (average surviving larvae per treatment per sample, 10 larvae/plot) [5]",% Control / % activity ([6]; 28 DAT),"Fall Armyworm worm Counts (average per treatment per sample, 1-sq-ft) [6]",% Reduction / % activity ([7]; 5 DAT),Fall Armyworm damage (%) (average feeding damage) [7],% Control / % activity ([8]; 4 DAT),Masked Chafer grub counts (average live grubs per treatment per sample) [8],further results
"CC1(C)C(C=C(Cl)Cl)C1C(=O)OC(C#N)c1cccc(Oc2ccccc2)c1 (racemic) [Alpha-cypermethrin, racemate comprising (R)-α-cyano-3-phenoxybenzyl (1S, 3S)-3-(2,2-dichlorovinyl)-2,2-dimethylcyclopropanecarboxy late; (S)-α-cyano-3-phenoxybenzyl (1R, 3R) (2,2-dichlorovinyl)-2,2-dimethylcyclopropanecarboxylate]",81%,6.0,57%,2.5,0%,2.25,91%,0.25,80%,1.75,57%,1.39,94%,1.25%,18%,18.5,"expected % activity (Colby) [1, 9]: 96%; expected % activity (Colby) ([2]; 7 DAT, calculated from solo rates 47.5 and 600 g ai/ha): 87%; expected % activity (Colby) ([3]; calculated from solo rates 95 and 600 g ai/ha): 0%; expected % activity (Colby) ([4]; 62 DAT, calculated from solo rates 95 and 600 g ai/ha): 97%; expected % activity (Colby) ([5]; 19 DAT, calculated from solo rates 47.5 and 600 g ai/ha): 83%; expected % activity (Colby) [6, 9]: 58%; expected % activity (Colby) ([7]; 5 DAT, calculated from solo rates 95 and 600 g ai/ha): 98%; expected % activity (Colby) ([8]; 4 DAT, calculated from solo rates 95 and 600 g ai/ha): 29%"
"CNC(=N[N+](=O)[O-])NCC1CCOC1 (racemic) [Dinotefuran, (RS)-1-methyl-2-nitro-3-(tetrahydro-3-furylmethyl) guanidine]",81%,5.8,60%,2.3,0%,2.00,64%,1.00,17%,7.25,2%,3.17,75%,5.00%,13%,19.5,–
